ChEMBL document CHEMBL5649166, “RIP3 induces apoptosis independent of pronecrotic kinase activity” (Mol Cell, 2014)

Legend:
[1] = molecular target: Cyclin-dependent kinase 2/cyclin E1 (Homo sapiens) (UniProt P24864+P24941); experiment: Inhibition of human CDK2/cyclin E using RB Protein as substrate at 1 uM in presence of 32P-ATP by Hotspot assay relative to control; values are per cent of control
[2] = molecular target: T1, Phosphorylase b kinase gamma catalytic chain, liver/testis isoform (Homo sapiens) (UniProt P15735); experiment: Inhibition of human PHKg2 using KKLNRTLSFAEPG as substrate at 1 uM in presence of 32P-ATP by Hotspot assay relative to control; values are per cent of control
T1 sequence (whole entry): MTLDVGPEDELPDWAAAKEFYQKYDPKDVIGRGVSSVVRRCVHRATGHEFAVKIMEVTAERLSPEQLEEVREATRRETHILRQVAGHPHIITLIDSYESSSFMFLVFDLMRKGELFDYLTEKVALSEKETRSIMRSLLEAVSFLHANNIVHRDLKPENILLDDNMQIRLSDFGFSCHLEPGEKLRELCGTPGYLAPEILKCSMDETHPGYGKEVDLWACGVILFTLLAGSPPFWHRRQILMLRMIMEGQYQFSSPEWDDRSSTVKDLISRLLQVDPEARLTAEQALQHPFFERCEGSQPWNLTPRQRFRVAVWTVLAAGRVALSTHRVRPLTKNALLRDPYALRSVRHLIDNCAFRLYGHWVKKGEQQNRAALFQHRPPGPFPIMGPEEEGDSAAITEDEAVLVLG

[3] = molecular target: Mast/stem cell growth factor receptor Kit (Homo sapiens) (UniProt P10721); experiment: Residual activity of human c-Kit using poly[Glu:Tyr] (4:1) as substrate at 1 uM in presence of 32P-ATP by Hotspot assay relative to control
[4] = molecular target: Tyrosine-protein kinase BTK (Homo sapiens) (UniProt Q06187); experiment: Inhibition of human BTK using poly[Glu:Tyr] (4:1) as substrate at 1 uM in presence of 32P-ATP by Hotspot assay relative to control; values are per cent of control
[5] = molecular target: Protein kinase C eta type (Homo sapiens) (UniProt P24723); experiment: Inhibition of human PKCeta using ERMRPRKRQGSVRRRV as substrate at 1 uM in presence of 32P-ATP by Hotspot assay relative to control; values are per cent of control
[6] = molecular target: Hepatocyte growth factor receptor (Homo sapiens) (UniProt P08581); experiment: Inhibition of human c-MET using poly[Glu:Tyr] (4:1) as substrate at 1 uM in presence of 32P-ATP by Hotspot assay relative to control; values are per cent of control
[7] = molecular target: Receptor-type tyrosine-protein kinase FLT3 (Homo sapiens) (UniProt P36888); experiment: Inhibition of human FLT3 using EAIYAAPFAKKK as substrate at 1 uM in presence of 32P-ATP by Hotspot assay relative to control; values are per cent of control
[8] = molecular target: Tyrosine-protein kinase Fes/Fps (Homo sapiens) (UniProt P07332); experiment: Inhibition of human FES/FPS using poly[Glu:Tyr] (4:1) as substrate at 1 uM in presence of 32P-ATP by Hotspot assay relative to control; values are per cent of control
[9] = molecular target: T2, Interleukin-1 receptor-associated kinase 4 (Homo sapiens) (UniProt Q9NWZ3); experiment: Inhibition of human IRAK4 using myelin basic protein as substrate at 1 uM in presence of 32P-ATP by Hotspot assay relative to control; values are per cent of control
T2 sequence (whole entry): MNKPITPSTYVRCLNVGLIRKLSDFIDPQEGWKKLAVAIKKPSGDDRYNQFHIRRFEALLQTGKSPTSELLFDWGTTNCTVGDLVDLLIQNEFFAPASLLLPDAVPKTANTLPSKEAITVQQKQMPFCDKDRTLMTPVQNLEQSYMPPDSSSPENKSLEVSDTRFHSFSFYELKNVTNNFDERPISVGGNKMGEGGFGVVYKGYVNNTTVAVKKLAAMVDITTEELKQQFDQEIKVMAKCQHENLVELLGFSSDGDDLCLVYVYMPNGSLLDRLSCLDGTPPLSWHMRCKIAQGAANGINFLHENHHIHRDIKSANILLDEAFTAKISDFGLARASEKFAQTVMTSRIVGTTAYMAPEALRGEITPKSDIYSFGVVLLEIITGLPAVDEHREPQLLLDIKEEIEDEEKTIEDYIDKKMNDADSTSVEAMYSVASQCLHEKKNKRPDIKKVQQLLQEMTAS

[10] = molecular target: Serine/threonine-protein kinase N1 (Homo sapiens) (UniProt Q16512); experiment: Inhibition of human PKN1/PRK1 using KKLNRTLSVA as substrate at 1 uM in presence of 32P-ATP by Hotspot assay relative to control; values are per cent of control
[11] = molecular target: Mitogen-activated protein kinase 8 (Homo sapiens) (UniProt P45983); experiment: Inhibition of human JNK1 using ATF2 as substrate at 1 uM in presence of 32P-ATP by Hotspot assay relative to control; values are per cent of control
[12] = molecular target: Casein kinase I isoform gamma-2 (Homo sapiens) (UniProt P78368); experiment: Inhibition of human CK1g2 using KRRRAL[pS]VASLPGL as substrate at 1 uM in presence of 32P-ATP by Hotspot assay relative to control; values are per cent of control
[13] = molecular target: Dual specificity protein kinase CLK4 (Homo sapiens) (UniProt Q9HAZ1); experiment: Inhibition of human CLK4 using myelin basic protein as substrate at 1 uM in presence of 32P-ATP by Hotspot assay relative to control; values are per cent of control
Sequence of Dual specificity protein kinase CLK4 (Homo sapiens) (Q9HAZ1 whole entry, looked up): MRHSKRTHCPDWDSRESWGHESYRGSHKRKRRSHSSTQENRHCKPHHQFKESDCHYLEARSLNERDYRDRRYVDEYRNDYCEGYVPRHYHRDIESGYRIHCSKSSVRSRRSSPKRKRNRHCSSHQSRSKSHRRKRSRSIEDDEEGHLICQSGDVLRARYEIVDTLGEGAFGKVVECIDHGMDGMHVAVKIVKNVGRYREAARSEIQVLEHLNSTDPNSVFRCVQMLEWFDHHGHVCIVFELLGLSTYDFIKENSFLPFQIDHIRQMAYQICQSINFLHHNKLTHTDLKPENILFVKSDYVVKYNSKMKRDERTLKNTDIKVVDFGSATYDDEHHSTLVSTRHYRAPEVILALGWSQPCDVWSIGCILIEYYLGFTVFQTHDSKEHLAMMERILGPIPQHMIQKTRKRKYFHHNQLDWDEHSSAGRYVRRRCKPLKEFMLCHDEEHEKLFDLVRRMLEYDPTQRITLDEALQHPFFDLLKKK

Sequence of Serine/threonine-protein kinase N1 (Homo sapiens) (Q16512 2-942 limits assumed): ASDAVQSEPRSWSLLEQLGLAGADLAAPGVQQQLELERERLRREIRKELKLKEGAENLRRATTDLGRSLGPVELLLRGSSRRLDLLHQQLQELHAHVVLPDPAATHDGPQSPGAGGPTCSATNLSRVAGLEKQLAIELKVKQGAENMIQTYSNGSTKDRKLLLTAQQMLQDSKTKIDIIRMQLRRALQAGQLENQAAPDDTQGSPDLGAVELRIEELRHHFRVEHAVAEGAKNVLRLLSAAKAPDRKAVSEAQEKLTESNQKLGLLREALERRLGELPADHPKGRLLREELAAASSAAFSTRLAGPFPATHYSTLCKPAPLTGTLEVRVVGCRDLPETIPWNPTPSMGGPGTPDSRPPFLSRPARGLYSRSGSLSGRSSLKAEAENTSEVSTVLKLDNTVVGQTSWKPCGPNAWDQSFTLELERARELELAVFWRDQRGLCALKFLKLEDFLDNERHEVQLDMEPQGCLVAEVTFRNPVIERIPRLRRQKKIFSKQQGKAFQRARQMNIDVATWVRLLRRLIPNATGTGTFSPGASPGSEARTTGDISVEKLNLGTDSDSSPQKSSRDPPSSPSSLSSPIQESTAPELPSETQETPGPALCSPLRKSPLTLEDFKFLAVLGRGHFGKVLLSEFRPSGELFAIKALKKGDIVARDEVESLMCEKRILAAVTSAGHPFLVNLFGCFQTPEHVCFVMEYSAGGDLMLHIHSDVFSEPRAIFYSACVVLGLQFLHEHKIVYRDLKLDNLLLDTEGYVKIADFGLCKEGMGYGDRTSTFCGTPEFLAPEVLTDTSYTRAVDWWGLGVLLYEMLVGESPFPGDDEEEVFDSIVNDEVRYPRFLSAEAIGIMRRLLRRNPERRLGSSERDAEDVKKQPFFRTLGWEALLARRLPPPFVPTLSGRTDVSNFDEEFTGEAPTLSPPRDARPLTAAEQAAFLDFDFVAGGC
Sequence of Tyrosine-protein kinase Fes/Fps (Homo sapiens) (P07332 whole entry): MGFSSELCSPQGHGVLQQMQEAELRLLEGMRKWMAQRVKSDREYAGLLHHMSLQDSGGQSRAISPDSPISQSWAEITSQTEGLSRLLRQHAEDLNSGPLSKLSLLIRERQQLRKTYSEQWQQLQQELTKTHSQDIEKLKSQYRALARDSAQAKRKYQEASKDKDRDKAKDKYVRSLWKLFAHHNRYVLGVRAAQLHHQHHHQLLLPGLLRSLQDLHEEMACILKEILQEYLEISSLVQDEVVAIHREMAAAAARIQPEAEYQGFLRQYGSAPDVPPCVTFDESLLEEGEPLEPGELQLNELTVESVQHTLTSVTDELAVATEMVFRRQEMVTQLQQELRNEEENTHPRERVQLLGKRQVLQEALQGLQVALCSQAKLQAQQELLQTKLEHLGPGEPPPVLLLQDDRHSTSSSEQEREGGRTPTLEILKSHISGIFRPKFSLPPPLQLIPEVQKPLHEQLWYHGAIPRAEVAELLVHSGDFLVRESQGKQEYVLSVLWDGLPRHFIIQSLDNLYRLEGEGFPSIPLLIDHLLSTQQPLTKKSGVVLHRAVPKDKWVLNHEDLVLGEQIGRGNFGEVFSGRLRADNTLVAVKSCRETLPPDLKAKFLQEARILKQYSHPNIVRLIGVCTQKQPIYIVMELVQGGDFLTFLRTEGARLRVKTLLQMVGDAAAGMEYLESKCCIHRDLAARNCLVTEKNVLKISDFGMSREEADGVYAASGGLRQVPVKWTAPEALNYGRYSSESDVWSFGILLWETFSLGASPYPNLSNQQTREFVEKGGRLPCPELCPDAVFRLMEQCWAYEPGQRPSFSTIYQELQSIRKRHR
Sequence of Mast/stem cell growth factor receptor Kit (Homo sapiens) (P10721 whole entry): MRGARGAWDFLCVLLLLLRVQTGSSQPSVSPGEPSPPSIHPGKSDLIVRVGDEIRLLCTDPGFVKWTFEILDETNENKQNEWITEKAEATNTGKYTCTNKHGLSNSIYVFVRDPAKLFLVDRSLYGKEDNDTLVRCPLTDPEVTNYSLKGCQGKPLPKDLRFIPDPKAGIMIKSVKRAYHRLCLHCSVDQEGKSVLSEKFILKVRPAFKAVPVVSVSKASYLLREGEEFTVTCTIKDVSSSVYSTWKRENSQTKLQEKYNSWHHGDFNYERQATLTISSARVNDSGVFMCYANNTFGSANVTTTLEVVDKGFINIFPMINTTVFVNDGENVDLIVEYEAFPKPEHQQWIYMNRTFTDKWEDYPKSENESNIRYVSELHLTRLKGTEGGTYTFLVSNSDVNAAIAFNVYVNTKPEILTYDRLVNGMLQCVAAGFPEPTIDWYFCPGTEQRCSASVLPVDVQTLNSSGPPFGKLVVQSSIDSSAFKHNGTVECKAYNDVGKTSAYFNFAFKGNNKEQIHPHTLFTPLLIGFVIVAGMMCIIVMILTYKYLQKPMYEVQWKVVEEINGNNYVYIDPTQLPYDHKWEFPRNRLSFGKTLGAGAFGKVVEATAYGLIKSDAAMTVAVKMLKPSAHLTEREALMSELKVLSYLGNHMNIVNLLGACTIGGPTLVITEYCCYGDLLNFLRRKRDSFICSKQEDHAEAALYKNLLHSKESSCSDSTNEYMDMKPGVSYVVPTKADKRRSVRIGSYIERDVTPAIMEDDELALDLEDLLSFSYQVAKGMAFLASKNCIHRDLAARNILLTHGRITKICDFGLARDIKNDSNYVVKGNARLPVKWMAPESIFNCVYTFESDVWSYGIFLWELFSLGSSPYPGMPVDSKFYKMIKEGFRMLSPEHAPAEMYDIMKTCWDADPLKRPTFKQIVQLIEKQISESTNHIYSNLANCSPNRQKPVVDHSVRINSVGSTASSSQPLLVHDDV
Sequence of Casein kinase I isoform gamma-2 (Homo sapiens) (P78368 whole entry, looked up, canonical isoform): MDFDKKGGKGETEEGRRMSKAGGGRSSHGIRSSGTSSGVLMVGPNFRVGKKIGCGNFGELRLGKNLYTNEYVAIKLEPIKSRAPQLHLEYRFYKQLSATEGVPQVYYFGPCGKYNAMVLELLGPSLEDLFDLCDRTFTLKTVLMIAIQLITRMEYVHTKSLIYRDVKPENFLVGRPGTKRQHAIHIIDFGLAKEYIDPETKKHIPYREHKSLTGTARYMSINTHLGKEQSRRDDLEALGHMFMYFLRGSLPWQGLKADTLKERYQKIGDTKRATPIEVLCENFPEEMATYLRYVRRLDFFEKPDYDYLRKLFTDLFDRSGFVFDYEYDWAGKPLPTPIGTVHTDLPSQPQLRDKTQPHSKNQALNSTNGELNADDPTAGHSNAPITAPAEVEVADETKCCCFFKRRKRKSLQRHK
Sequence of Tyrosine-protein kinase BTK (Homo sapiens) (Q06187 whole entry): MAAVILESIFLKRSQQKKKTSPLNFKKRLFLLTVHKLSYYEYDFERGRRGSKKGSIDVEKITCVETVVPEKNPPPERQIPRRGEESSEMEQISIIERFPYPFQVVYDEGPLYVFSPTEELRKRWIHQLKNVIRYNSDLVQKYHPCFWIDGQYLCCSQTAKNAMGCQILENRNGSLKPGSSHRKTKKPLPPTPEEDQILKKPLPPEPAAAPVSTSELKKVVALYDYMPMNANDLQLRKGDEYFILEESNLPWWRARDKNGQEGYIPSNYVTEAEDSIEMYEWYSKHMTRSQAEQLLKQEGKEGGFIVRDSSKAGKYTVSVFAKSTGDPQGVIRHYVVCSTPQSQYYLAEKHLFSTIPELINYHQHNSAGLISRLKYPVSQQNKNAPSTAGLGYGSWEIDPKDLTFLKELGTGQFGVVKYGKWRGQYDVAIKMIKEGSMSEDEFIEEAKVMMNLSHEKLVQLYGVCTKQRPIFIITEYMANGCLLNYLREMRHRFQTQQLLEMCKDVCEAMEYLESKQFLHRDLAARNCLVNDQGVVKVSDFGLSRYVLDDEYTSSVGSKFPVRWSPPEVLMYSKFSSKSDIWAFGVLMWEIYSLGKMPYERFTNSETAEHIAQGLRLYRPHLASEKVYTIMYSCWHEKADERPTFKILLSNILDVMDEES
Sequence of Protein kinase C eta type (Homo sapiens) (P24723 whole entry): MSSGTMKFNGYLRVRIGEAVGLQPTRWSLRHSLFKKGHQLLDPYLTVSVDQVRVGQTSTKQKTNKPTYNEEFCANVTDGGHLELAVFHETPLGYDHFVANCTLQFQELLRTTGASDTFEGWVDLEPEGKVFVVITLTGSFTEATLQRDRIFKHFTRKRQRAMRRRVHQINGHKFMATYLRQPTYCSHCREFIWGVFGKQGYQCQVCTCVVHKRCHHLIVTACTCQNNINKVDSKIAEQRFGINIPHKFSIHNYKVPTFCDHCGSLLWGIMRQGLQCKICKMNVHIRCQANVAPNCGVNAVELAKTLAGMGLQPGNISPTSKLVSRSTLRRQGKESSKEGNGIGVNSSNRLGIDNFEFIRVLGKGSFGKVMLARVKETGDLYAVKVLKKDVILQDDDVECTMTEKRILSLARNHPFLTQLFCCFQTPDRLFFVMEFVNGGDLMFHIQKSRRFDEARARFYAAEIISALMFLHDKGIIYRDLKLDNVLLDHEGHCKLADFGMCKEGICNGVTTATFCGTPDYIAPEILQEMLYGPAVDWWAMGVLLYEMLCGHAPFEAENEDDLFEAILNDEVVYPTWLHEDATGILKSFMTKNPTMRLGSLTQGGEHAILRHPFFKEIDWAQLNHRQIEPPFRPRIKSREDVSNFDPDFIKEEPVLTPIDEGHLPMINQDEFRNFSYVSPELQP

SMILES | residual activity [1] | residual activity [2] | residual activity [3] | residual activity [4] | residual activity [5] | residual activity [6] | residual activity [7] | residual activity [8] | residual activity [9] | residual activity [10] | residual activity [11] | residual activity [12] | residual activity [13]
Cc1cc(-c2cnc(N)c3c(-c4ccc5scnc5c4)csc23)n(C)n1 | 94.8% | 95.4% | 41.5% | 58% | 73.6% | 76.8% | 48% | 95% | 99.7% | 96.7% | 91.6% | 79.1% | 84.6%
CC(C)S(=O)(=O)c1ccc2nccc(Nc3ccc4scnc4c3)c2c1 | 87.7% | 98.2% | 95.8% | 30.4% | 88% | 86.2% | 87.9% | 86.1% | 97.5% | 95.3% | 96.8% | 100% | 92.2%
CNC(=O)c1ccc2c(c1)ncn2-c1ccc(CC(=O)OC(C)(C)C)cc1 | 104% | 100% | 74.4% | 79.8% | 92.5% | 92.4% | 16% | 98.1% | 102% | 97.7% | 103% | 91.8% | 93.8%
